Patent US9198915B2, “Methods involving aldose reductase inhibitors” (The Board of Regents of The University of Texas System, priority 2007, dated 2015)

Columns and labels:
AR [1] = target: AR (Homo sapiens, UniProt P15121); details: substrate of AR, in the presence of NADPH; cited from earlier work
IL-6, IL-8 and PGE2 [2] = experiment: TNF-α- and LPS-induced IL-6, IL-8 and PGE2 secretion by SAEC (ELISA); assay type: cell-based, human; details: siRNA 100 nM 48 h, then TNF-α or LPS 24 h
IL-6, IL-8 and PGE2 [3] = experiment: RW-induced IL-6, IL-8 and PGE2 secretion by SAEC (ELISA); assay type: cell-based, human; details: siRNA 100 nM, 48 h, then RW 50 μg/ml 24 h
Protocol: The SAEC were plated in 6-well plates at a density of 2×10^5 cells/well in triplicate for each group. After 24 hours, the medium was replaced with serum-free SABM with or without zopolrestat (20 μM). The growth-arrested and AR ablated cells were stimulated with RW (50 μg/mL) for another 24 hours. The medium was collected from each well, centrifuged and supernatant was analyzed for PGE2 (Cayman Chemical Co., Ann Arbor, Mich.); IL-6 (Diaclone, Stamford, Conn.) and IL-8 (R&D systems Inc, Minneapolis, Minn.) by using an ELISA kits according to the manufacturer's instructions.

AR [4] = experiment: RNA interference ablation of AR in SAEC (AR protein by Western blot); assay type: cell-based, human; details: transient transfection of SAEC, 100 nM, 48 h
Protocol: The ablation of AR mRNA was essentially carried out as described in the art. Briefly, 2×10^5 SAECs were plated in a 6-well plate and grown until ˜80% confluency. The cells were incubated with serum-free medium containing the AR-siRNA ([…] (SEQ ID NO:1)) or scrambled siRNA (AAAATCTCCCTAAATCA TACA (SEQ ID NO:2); control) to a final concentration of 100 nM and the RNAiFect™ transfection reagent (Qiagen). The cells were cultured for 48 h at 37° C., and AR expression was determined by measuring AR protein by Western blot analysis using anti-AR antibodies.
The ablation of AR mRNA was essentially carried out as described in the art. Briefly, 2×10^5 SAECs were plated in a 6-well plate and grown till >80% confluency. The cells were incubated with serum-free medium containing the AR-siRNA ([…]) (SEQ ID NO:1) or scrambled siRNA (AAAATCTCCCTAAATCA TACA (SEQ ID NO:2); control) to a final concentration of 100 nM and the RNAiFect™ transfection reagent (Qiagen). The cells were cultured for 48 h at 37° C., and AR expression was determined by measuring AR protein by Western blot analysis using anti-AR antibodies.

For `CCCCCC(O)/C=C/C=O` (stereo not shown) [HNE, 4-hydroxynonenal], the Km (AR [1]) is given as 10 to 30 µM.

With “AATCGGTGTCTCCAACTTCAA (SEQ ID NO:1) (listed as DNA, chemistry not given here) [AR siRNA, siRNA used to ablate AR mRNA in SAEC, 100 nM]” the “TNF-α and LPS-induced IL-6, IL-8 and PGE2 production after ablation of AR” value (IL-6, IL-8 and PGE2 [2]) was “significantly prevented”, the “RW-induced synthesis of IL-6, IL-8 and PGE2 after siRNA ablation of AR” value (IL-6, IL-8 and PGE2 [3]) was “significantly prevented” and the AR protein abolished (AR [4]) was over 95%.
